Reference: patent publication US11964041B2, “Compositions comprising levan and use thereof” (GAN SHMUEL FOODS LTD., priority 2018, dated 2024)

Tests used:
Assay type in all cases: cell-based
human skin explants [1] = assay: Epidermal turnover rate by BrdU assay in human skin organ culture; conditions: hyaluronic acid 0.2% with vehicle
Method: (§1) The human skin organ culture was obtained from a healthy patient undergoing plastic surgery (person). The study was initiated at the day of surgery.
(§2) Fixed size skin explant pieces (0.64 cm^2) were cut from the skin tissue, using a designated press apparatus.
(§3) The skin pieces were prepared and maintained in air liquid interphase; the explants were laid in 6-well culture plates containing skin culture medium (Dulbecco Minimal Essential Medium (DMEM) supplemented with 100 U/ml penicillin and 100 μg/ml streptomycin), dermal side down in the medium and epidermis phasing up. The pieces were left to recover at 37° C. with 5% CO2 overnight. […]
(§4) The following control groups were also included in this study: Naïve group (Group 1), Vehicle group (mock treatment—hexose, Group 2), and positive control groups for viability and proliferation (10% SDS, Group 3 and 10 ng/ml EGF, Group 4, respectively). Hyaluronic acid was evaluated in this system (0.2%, Group 5). […]
The pieces were incubated at 37° C. with 5% CO2 under humidified atmosphere for 48 hr. […] The epidermal viability was evaluated by MTT, according to standard operating procedure (SOP). […] Concomitantly, the epidermal turnover rate was determined on the second set of test groups by BrdU assay according to the kit's manufacturer instructions. […]
Colorimetric evaluation of the turnover rate was recorded by Enzyme-Linked Immunosorbent Assay (ELISA) reader.

[2] = tested on: Staphylococcus epidermidis; assay: Bacterial growth, minimal inhibition concentration (MIC) assay; conditions: Ampicillin 100 μg/ml, positive control
Method: The experiment was conducted in Staphylococcus epidermidis. Two Test Items were evaluated in this study; Levan and a Commercial reference (C.R.). The assay was carried out in triplicates. The in vitro activity of the Test items was evaluated by minimal inhibition concentration (MIC) assay. This was measured spectrometrically. The increase bacteria number versus time of incubation w/o or with increasing concentrations of the Test items was plotted. Streak plate isolation technique was performed to isolate a single homogenous colony, according to SOP. One colony of each bacterial strain was inoculated from agar plate into U-shape falcon tube at a final volume of 4 ml in BHI liquid broth. Cultures were incubated in a bacterial incubator-shaker at 37° C. with shaking at 250 rpm overnight. The cultures were diluted and grown to mid-log phase (O.D. Approx. 0.5; 600 nm). The exact O.D. was recorded [0.506]. Dose response analysis of six concentrations for each Test Item was performed in the bacteria as described in Table 7. The following control groups were included in this study: Naïve group (Group 1), Vehicle group (mock treatment—hexose, Group 2) and positive control groups (Ampicillin (100 μg/ml), Group 3). […] The absorbance was recorded at 600 nm. The absorbance of the blank control was subtracted from all measurements (0.107).

human skin explants [3] = assay: Epidermal viability by MTT in human skin organ culture; conditions: 10% SDS, positive control, 48 hr
Method: as §1, §2, §3, §4
The pieces were incubated at 37° C. with 5% CO2 under humidified atmosphere for 48 hr. […] The epidermal viability was evaluated by MTT, according to standard operating procedure (SOP). […] Concomitantly, the epidermal turnover rate was determined on the second set of test groups by BrdU assay according to the kit's manufacturer instructions.

Hyaluronic acid
effectiveness compared with the disclosed levan-based composition (human skin explants [1]): less effective

CC1(C)S[C@@H]2[C@H](NC(=O)[C@H](N)c3ccccc3)C(=O)N2[C@H]1C(=O)O [Ampicillin]
bacterial growth (O.D. 600 nm) [2]: effectively blocked the bacterial growth

CCCCCCCCCCCCOS(=O)(=O)[O-].[Na+] [SDS]
skin viability (MTT) (human skin explants [3]): reduced skin viability
